Data from US20250195468A1, “METHODS AND COMPOSITIONS FOR TREATING COLORECTAL CANCER WITH INDOXYL SULFATE” (National Institute of Immunology, priority 2023, published 2025).
Counter-ions that a name gives are not always drawn.

Assays:
[1] = test system: human adenocarcinoma cells; assay: Oxidative stress by DHE staining; type: cell-based; conditions: DHE staining after 48 hours of treatment
Method: (§1) In the in vitro study, cells were exposed to various doses of indoxyl sulfate ranging from 0.038 mM to 10 mM for three different incubation periods (24 hours, 48 hours, and 72 hours). A decrease in cell proliferation efficiency was observed after 48 hours of treatment, with the most significant effects observed at concentrations of 5 mM and 10 mM of indoxyl sulfate. […] Decrease in cellular ATP content indicates the diminished cellular metabolic activity and may be linked with cell death. Considering these findings. the apoptotic effect of indoxyl sulfate was examined. […] Another study on the osteoblast cell line MC3T3-E1 also confirmed that IS acts as a bone toxin by inducing cell apoptosis and inhibiting differentiation. […] To account for this study. cells were also assessed for oxidative stress in this invention by staining them with […] (DHE) after 48 hours of treatment. […] The potential for IS to cause DNA damage was also investigated.

HT-29 cells [2] = assay: Cellular imaging (cell morphology); type: cell-based, human; conditions: HT-29, 1.25-10 mM, 24, 48, 72 hours
Method: (§2) To assess the morphological changes of the cells following treatment, HT-29 and HCT-116 cells were cultured in 12-well plates at a concentration of […] cells per well. After 24 hours of seeding, the cells were treated with IS at concentrations of 1.25 mM, 5 mM, and 10 mM. The cells were exposed to IS in triplicate for three different incubation periods: 24 hours, 48 hours, and 72 hours. After the respective incubation periods, the cells were examined using a Nikon microscope equipped with a 20× objective. Images were captured using a digital camera and the NIS-Elements 3.0 software.

HCT-116 cells [3] = assay: Cellular imaging (cell morphology); type: cell-based, human; conditions: HCT-116, 1.25-10 mM, 24, 48, 72 hours
Method: as §2

HT-29 cells [4] = assay: Membrane integrity by LDH assay; type: cell-based, human; conditions: 48 hours, 0.1% Triton X-100 = 100%
Method: (§3) Membrane integrity was assessed using the LDH based in vitro toxicology kit obtained from Sigma-Aldrich. The assay was conducted following the manufacturer's protocol. HCT-116 and HT-29 cells were cultured in a 96-well plate at a density of 10,000 cells per well. After 24 hours of seeding, the cells were treated with IS at concentrations of 1.25 mM, 5 mM, and 10 mM. Following a 48-hour treatment period, the cells were centrifuged, and 100 μl of supernatant was collected into a fresh 96-well plate to measure the amount of LDH released into the media by necrotic cells. Subsequently, 100 μl of the dosing reagent was added and incubated for 30 minutes at 37° C. After incubation, 20 μl of […] stop solution was added. Absorbance was measured at 690 nm and 490 nm using a ClarioStar plate reader (BMG Labtech, Ortenberg, Germany). The background absorbance at 690 nm was subtracted from the 490 nm absorbance. For the positive control, 0.1% Triton X-100 was used and considered as maximum LDH release. Untreated cells served as the negative control. The membrane integrity of IS-exposed cells was compared to that of untreated cells. The following formula was used to calculate the LDH release from the cells: Experimental LDH release (OD490)×100/maximum LDH release (OD490).

HCT-116 cells [5] = assay: Membrane integrity by LDH assay; type: cell-based, human; conditions: 48 hours, 0.1% Triton X-100 = 100%
Method: as §3

[6] = test system: human adenocarcinoma cells; assay: Comet assay (DNA damage); type: cell-based; conditions: cell lysate after IS treatment
Method: as §1

HT-29 cells [7] = assay: Clonogenic (colony forming) assay; type: cell-based, human; conditions: HT-29, 1.25-10 mM for 48 hours, 10 days colony growth
Method: (§4) To assess the colony-forming ability of cells after treatment with IS, a colony forming assay was performed. HCT-116 and HT-29 cells were cultured in 6-well plates at a density of 2×10^5 cells per well. After 24 hours of seeding, the cells were exposed to IS at concentrations of 1.25 mM, 5 mM, and 10 mM. Following a 48-hour treatment period, the cells were harvested using trypsin and counted for each treatment. From each treatment group, 400, 800, and 1200 cells were plated and incubated for 10 days in 6-well plates. During the incubation period, the media were replenished every alternate day. After 10 days, the colonies were washed with PBS and stained with 0.5% crystalline violet. The cells were then fixed with 6% glutaraldehyde. The colonies were visualized and counted using ImageJ software. The clonogenic efficiency of the treated cells was compared to that of the untreated cells.

HCT-116 cells [8] = assay: Clonogenic (colony forming) assay; type: cell-based, human; conditions: HCT-116, 1.25-10 mM for 48 hours, 10 days colony growth
Method: as §4

HT-29 cells [9] = assay: Cell cycle assay, PI flow cytometry; type: cell-based, human; conditions: HT-29, 48 hours, 5 mM and 10 mM (not resolved); increased from 14.2±0.5
Method: (§5) The evaluation of the effect of IS on the progression of HCT-116 and HT-29 cell cycle assay involved analysing the G0/G1 phase, Synthesis(S) phase, and G2/M phase. Cells were initially cultured in a 6-well plate with a seeding density of (2×10^5) cells/well in duplicate. After 24 hours of seeding, the cells were treated with varying concentrations of IS (1.25 mM, 5 mM, and 10 mM). Following a 48-hour processing period, the cells were detached using trypsin and washed twice with refrigerated PBS. The resulting cell pellet was then dissolved in 200 ul of chilled PBS and fixed by adding 800 ul of 70% ethanol dropwise. The samples were stored at −20° C. overnight for later use. After the overnight incubation, the cells were centrifuged at 2000 rpm for 5 minutes at 4° C. The pellet was dissolved in 300 ul of PBS, 50 ul of RNase A (100 ug/ml), and 35 ul of Triton X-100 (0.1%), and incubated at 37° C. for 30 minutes. Subsequently, 20 ul of PI was added from a stock solution of 500 μg/ml, and the samples were incubated in the dark for an additional 30 minutes. Flow cytometry (BD Biosciences, FACS Verse, Germany) was employed to measure PI staining in 1×10^3 cells. The Flow Jo software was utilized for the analysis of cell distribution across the different phases of the cell cycle.

HCT-116 cells [10] = assay: Cell cycle assay, PI flow cytometry; type: cell-based, human; conditions: HCT-116, 48 hours, 5 mM and 10 mM (not resolved); increased from 18.1±1.99
Method: as §5

O=S(=O)(O)Oc1c[nH]c2ccccc12 [IS, Indoxyl Sulfate]
production of ROS [1]: did not cause any production of ROS
cell morphology (HT-29 cells [2]): rounded morphology, reduced cell numbers, and detachment from the culture substrate
cell morphology (HCT-116 cells [3]): rounded morphology, reduced cell numbers, and detachment from the culture substrate
LDH release in the supernatant (HT-29 cells [4]; HT-29, 5 mM): 82%
LDH release in the supernatant (HT-29 cells [4]; HT-29, 10 mM): 85%
LDH release in the supernatant (HCT-116 cells [5]; HCT-116, 5 mM): 80%
LDH release in the supernatant (HCT-116 cells [5]; HCT-116, 10 mM): 86%
DNA damage (comet formation) [6]: does not show formation of any comet
number of colonies formed compared to control (HT-29 cells [7]): significant reduction in the number of colonies formed
number of colonies formed compared to control (HCT-116 cells [8]): significant reduction in the number of colonies formed
number of cells in the G2/M phase (HT-29 cells [9]): 17.3±0.7
number of cells in the G2/M phase (HCT-116 cells [10]): 22.7±3.2
